SMILES strings stand for the structures. Numbers after ± are expanded uncertainties.

Data set [1] in a line: xn = mol fraction of the nth substance listed. The following applies: 10000 kPa, Liquid.
A short description of data set [2]: wn = mass fraction of the nth substance listed. Particulars: Liquid.

The viscosity is the resistance of a fluid to flow. As to `O=C=O` [carbon dioxide] + O, the viscosity was determined as 0.81 ± 0.05 mPa·s in data set [1] (303.15 K, x1 = 0.0073); 0.86 ± 0.05 mPa·s in data set [1] (303.15 K, x1 = 0.0148); 0.89 ± 0.06 mPa·s in data set [1] (303.15 K, x1 = 0.0238); 0.68 ± 0.04 mPa·s in data set [1] (313.15 K, x1 = 0.0107); 0.7 ± 0.06 mPa·s in data set [1] (313.15 K, x1 = 0.0207).
`[Cl-].[Na+]` [sodium chloride] + O: the viscosity in data set [2] (303.15 K, 10000 kPa, w1 = 0.03) was found to be 0.84 ± 0.05 mPa·s; in data set [2] (303.15 K, 20000 kPa, w1 = 0.03) it was 0.83 ± 0.05 mPa·s; in data set [2] (313.15 K, 10000 kPa, w1 = 0.03) it was 0.68 ± 0.04 mPa·s; in data set [2] (313.15 K, 20000 kPa, w1 = 0.03), 0.69 ± 0.04 mPa·s; in data set [2] (323.15 K, 10000 kPa, w1 = 0.03), 0.59 ± 0.04 mPa·s; in data set [2] (323.15 K, 20000 kPa, w1 = 0.03), 0.59 ± 0.04 mPa·s. For the same compound, the viscosity in data set [2] (333.15 K, 10000 kPa, w1 = 0.03) was 0.49 ± 0.04 mPa·s; in data set [2] (333.15 K, 20000 kPa, w1 = 0.03), 0.5 ± 0.04 mPa·s.
Regarding `O` [water] + [Cl-].[Na+], the viscosity in data set [2] (303.15 K, 10000 kPa, w2 = 0) is reported as 0.8 ± 0.05 mPa·s; in data set [2] (313.15 K, 10000 kPa, w2 = 0), 0.66 ± 0.04 mPa·s; in data set [2] (323.15 K, 10000 kPa, w2 = 0), 0.56 ± 0.04 mPa·s; in data set [2] (333.15 K, 10000 kPa, w2 = 0) it was 0.47 ± 0.04 mPa·s.

Source of the values: the NIST ThermoML archive (doi:10.1021/je049940f).
